Data set [1] can be described thus: logP determination by HPLC, reversed-phase column (C 18), EEC Directive 79/831 Annex V.A8. To be noted: pH 2. From the text:
(a) Mobile phases for the determination in the acidic range: 0.1% aqueous phosphoric acid, acetonitrile; linear gradient from 10% acetonitrile to 90% acetonitrile—the corresponding measurement results are labelled in Table 1 with ^a).
(b) Mobile phases for the determination in the neutral range: 0.01 molar aqueous phosphate buffer solution, acetonitrile; linear gradient from 10% acetonitrile to 90% acetonitrile—the corresponding measurement results are labelled in Table 1 with ^b).

The subject of data set [2] is crop plants, such as, for example, barley, wheat, rapeseed, soya and sugar beet. Put plainly: Pre-Emergence Test (Example A), tolerance by crop plants. Format: in vivo. To be noted: pre-emergence; barley, wheat, rapeseed, soya and sugar beet; rated after three weeks. From the text: (§1) Solvent: 5 parts by weight of acetone
(§2) Emulsifier: 1 part by weight of alkylaryl polyglycol ether
(§3) Seeds of the test plants are sown in normal soil.

Data set [3] deals with crop plants, such as, for example, barley and wheat. Put plainly: Post-Emergence Test (Example B), tolerance by crop plants. To be noted: post-emergence; barley and wheat; rated after three weeks.
Text: as §1, §2
(§4) After three weeks, the degree of damage to the plants is rated in % damage in comparison to the development of the untreated control.

For data set [4], the system named is weeds. Put plainly: Post-Emergence Test (Example B), activity against weeds. Format: in vivo. To be noted: test plants of a height of 5-15 cm sprayed, rated after three weeks.
Text: as §1, §2, §4

The test system of data set [5] is weeds. Description: Pre-Emergence Test (Example A), activity against weeds. Format: in vivo. Conditions: soil sprayed about 24 hours after sowing, rated after three weeks.
Text: as §1, §2, §3
0%=no effect (like untreated control)

The mark [6] stands for this setting: reversed-phase HPLC column (C 18).

The melting point is the temperature, or range, at which the solid turns liquid. Usually chromatographic logP stands for a lipophilicity value derived from retention on a column. Take `CCS(=O)(=O)N(C(=O)Oc1ccccc1)c1cc(-n2ncc(=O)n(C)c2=O)c(F)cc1C#N` [Example 1, 2-[5-(N-phenoxy-carbonyl-N-ethylsulphonylamino)-4-cyano-2-fluoro-phenyl]-4-methyl-1,2,4-triazine-3,5(2H,4H)-dione]: the melting point was found to be 181 °C. Besides, the chromatographic logP in data set [1] was found to be 2.76.
As to `C=CC(=O)N(c1cc(-n2ncc(=O)n(C)c2=O)c(F)cc1C#N)S(=O)(=O)CC` [Example 2, 2-[5-(N-acryloyl-N-ethylsulphonylamino)-4-cyano-2-fluoro-phenyl]-4-methyl-1,2,4-triazine-3,5(2H,4H)-dione], the melting point was determined as 118 °C. Further, the “tolerance by crop plants” value in data set [2] is “essentially being tolerated well”. Besides, the chromatographic logP in data set [1] (setting [6]) stood at 1.97. Also, the “tolerance by crop plants” value in data set [3] was “essentially being tolerated well”. Further, the “activity against weeds (degree of damage)” value in the data set with weeds [4] was “very strong activity”. In the data set with weeds [5], the “activity against weeds (degree of damage)” value is on record as “very strong activity”.
Compound `CCS(=O)(=O)Nc1cc(-n2ncc(=O)n(C)c2=O)c(F)cc1C#N` [Example (II-1), 2-(2-fluoro-4-cyano-5-ethylsulphonylamino-phenyl)-4-methyl-1,2,4-triazine-3,5(2H,4H)-dione] displayed a melting point of 233 °C. The chromatographic logP in data set [1] (setting [6]) came out at 1.66.

Values taken from patent US6608004B2, “Substituted 2-aryl-1,2,4-triazine-3,5-di(thi)ones” (priority 1999, dated 2003).
